Numbers after ± are expanded uncertainties.
Experiment: molar heat capacity at constant pressure
Conditions: 101.33 kPa, Crystal, relaxation calorimetry

With O=C(O)c1ccccc1 [benzoic acid] the “molar heat capacity at constant pressure” value (1.93 K) was 0.01333 ± 0.0011 J/K/mol, the “molar heat capacity at constant pressure” value (2.15 K) was 0.01845 ± 0.0015 J/K/mol and the “molar heat capacity at constant pressure” value (2.39 K) was 0.0255 ± 0.0019 J/K/mol. The “molar heat capacity at constant pressure” value (2.66 K) was 0.03397 ± 0.0025 J/K/mol, the “molar heat capacity at constant pressure” value (2.96 K) was 0.04707 ± 0.0034 J/K/mol and the “molar heat capacity at constant pressure” value (3.29 K) was 0.06572 ± 0.0047 J/K/mol. For the same compound, the “molar heat capacity at constant pressure” value (3.65 K) was 0.08963 ± 0.0064 J/K/mol, the “molar heat capacity at constant pressure” value (4.05 K) was 0.1233 ± 0.0088 J/K/mol and the “molar heat capacity at constant pressure” value (4.49 K) was 0.1714 ± 0.012 J/K/mol. For the same compound, the “molar heat capacity at constant pressure” value (4.99 K) was 0.2363 ± 0.017 J/K/mol, the “molar heat capacity at constant pressure” value (5.54 K) was 0.3302 ± 0.023 J/K/mol and the “molar heat capacity at constant pressure” value (6.14 K) was 0.4631 ± 0.033 J/K/mol. The “molar heat capacity at constant pressure” value (6.81 K) was 0.6487 ± 0.046 J/K/mol, the “molar heat capacity at constant pressure” value (7.56 K) was 0.9052 ± 0.064 J/K/mol and the “molar heat capacity at constant pressure” value (8.38 K) was 1.253 ± 0.088 J/K/mol. For the same compound, the “molar heat capacity at constant pressure” value (9.29 K) was 1.714 ± 0.12 J/K/mol, the “molar heat capacity at constant pressure” value (10.26 K) was 2.266 ± 0.16 J/K/mol and the “molar heat capacity at constant pressure” value (11.36 K) was 3.021 ± 0.21 J/K/mol. For the same compound, the “molar heat capacity at constant pressure” value (12.61 K) was 3.971 ± 0.28 J/K/mol, the “molar heat capacity at constant pressure” value (13.99 K) was 5.144 ± 0.36 J/K/mol and the “molar heat capacity at constant pressure” value (15.52 K) was 6.537 ± 0.46 J/K/mol. For the same compound, the “molar heat capacity at constant pressure” value (17.23 K) was 8.219 ± 0.57 J/K/mol, the “molar heat capacity at constant pressure” value (19.12 K) was 10.17 ± 0.71 J/K/mol and the “molar heat capacity at constant pressure” value (21.21 K) was 12.39 ± 0.5 J/K/mol. For the same compound, the “molar heat capacity at constant pressure” value (23.54 K) was 14.97 ± 0.61 J/K/mol, the “molar heat capacity at constant pressure” value (26.1 K) was 17.79 ± 0.72 J/K/mol and the “molar heat capacity at constant pressure” value (28.96 K) was 20.88 ± 0.85 J/K/mol. For the same compound, the “molar heat capacity at constant pressure” value (32.16 K) was 24.14 ± 0.98 J/K/mol, the “molar heat capacity at constant pressure” value (35.67 K) was 27.61 ± 1.1 J/K/mol and the “molar heat capacity at constant pressure” value (39.58 K) was 31.21 ± 1.3 J/K/mol. For the same compound, the “molar heat capacity at constant pressure” value (43.9 K) was 34.8 ± 1.4 J/K/mol, the “molar heat capacity at constant pressure” value (48.73 K) was 38.39 ± 1.6 J/K/mol and the “molar heat capacity at constant pressure” value (54.07 K) was 42.02 ± 1.7 J/K/mol. For the same compound, the “molar heat capacity at constant pressure” value (60 K) was 45.71 ± 1.9 J/K/mol, the “molar heat capacity at constant pressure” value (66.57 K) was 49.33 ± 2 J/K/mol and the “molar heat capacity at constant pressure” value (73.89 K) was 52.81 ± 2.1 J/K/mol. For the same compound, the “molar heat capacity at constant pressure” value (82 K) was 56.69 ± 2.3 J/K/mol, the “molar heat capacity at constant pressure” value (91.01 K) was 60.28 ± 2.4 J/K/mol and the “molar heat capacity at constant pressure” value (100.97 K) was 63.46 ± 2.6 J/K/mol. For the same compound, the “molar heat capacity at constant pressure” value (111.11 K) was 67.66 ± 2.7 J/K/mol, the “molar heat capacity at constant pressure” value (121.2 K) was 71.28 ± 2.9 J/K/mol and the “molar heat capacity at constant pressure” value (131.23 K) was 75.08 ± 3 J/K/mol. The “molar heat capacity at constant pressure” value (141.33 K) was 78.93 ± 3.2 J/K/mol, the “molar heat capacity at constant pressure” value (151.47 K) was 82.66 ± 3.4 J/K/mol and the “molar heat capacity at constant pressure” value (161.56 K) was 86.28 ± 3.5 J/K/mol. The “molar heat capacity at constant pressure” value (171.65 K) was 90.21 ± 3.7 J/K/mol, the “molar heat capacity at constant pressure” value (181.75 K) was 94.38 ± 3.8 J/K/mol and the “molar heat capacity at constant pressure” value (191.83 K) was 98.14 ± 4 J/K/mol. The “molar heat capacity at constant pressure” value (201.92 K) was 101.91 ± 4.1 J/K/mol, the “molar heat capacity at constant pressure” value (212.02 K) was 106.35 ± 4.3 J/K/mol and the “molar heat capacity at constant pressure” value (222.12 K) was 110.99 ± 4.5 J/K/mol. For the same compound, the “molar heat capacity at constant pressure” value (232.21 K) was 115.4 ± 4.7 J/K/mol, the “molar heat capacity at constant pressure” value (242.21 K) was 119.97 ± 4.9 J/K/mol and the “molar heat capacity at constant pressure” value (252.4 K) was 124.67 ± 5.1 J/K/mol. The “molar heat capacity at constant pressure” value (262.46 K) was 128.8 ± 5.2 J/K/mol, the “molar heat capacity at constant pressure” value (272.51 K) was 133.51 ± 5.4 J/K/mol and the “molar heat capacity at constant pressure” value (282.55 K) was 138.2 ± 5.6 J/K/mol. For the same compound, the “molar heat capacity at constant pressure” value (292.7 K) was 141.62 ± 5.8 J/K/mol and the “molar heat capacity at constant pressure” value (302.71 K) was 144.34 ± 5.9 J/K/mol.
For [Cu] [copper], the “molar heat capacity at constant pressure” value (1.93 K) was 0.001713 ± 0.00012 J/K/mol, the “molar heat capacity at constant pressure” value (2.15 K) was 0.002021 ± 0.00014 J/K/mol and the “molar heat capacity at constant pressure” value (2.39 K) was 0.002319 ± 0.00017 J/K/mol. For the same compound, the “molar heat capacity at constant pressure” value (2.65 K) was 0.002809 ± 0.0002 J/K/mol, the “molar heat capacity at constant pressure” value (2.95 K) was 0.003326 ± 0.00024 J/K/mol and the “molar heat capacity at constant pressure” value (3.28 K) was 0.003967 ± 0.00028 J/K/mol. The “molar heat capacity at constant pressure” value (3.64 K) was 0.004911 ± 0.00035 J/K/mol, the “molar heat capacity at constant pressure” value (4.04 K) was 0.005973 ± 0.00042 J/K/mol and the “molar heat capacity at constant pressure” value (4.48 K) was 0.007493 ± 0.00053 J/K/mol. For the same compound, the “molar heat capacity at constant pressure” value (4.97 K) was 0.009444 ± 0.00066 J/K/mol, the “molar heat capacity at constant pressure” value (5.51 K) was 0.01204 ± 0.00085 J/K/mol and the “molar heat capacity at constant pressure” value (6.11 K) was 0.01543 ± 0.0011 J/K/mol. The “molar heat capacity at constant pressure” value (6.78 K) was 0.0199 ± 0.0014 J/K/mol, the “molar heat capacity at constant pressure” value (7.52 K) was 0.02598 ± 0.0018 J/K/mol and the “molar heat capacity at constant pressure” value (8.33 K) was 0.03421 ± 0.0024 J/K/mol. The “molar heat capacity at constant pressure” value (9.24 K) was 0.04517 ± 0.0032 J/K/mol, the “molar heat capacity at constant pressure” value (10.25 K) was 0.06013 ± 0.0042 J/K/mol and the “molar heat capacity at constant pressure” value (11.34 K) was 0.08043 ± 0.0056 J/K/mol. The “molar heat capacity at constant pressure” value (12.58 K) was 0.1091 ± 0.0076 J/K/mol, the “molar heat capacity at constant pressure” value (13.96 K) was 0.149 ± 0.01 J/K/mol and the “molar heat capacity at constant pressure” value (15.48 K) was 0.2052 ± 0.014 J/K/mol. The “molar heat capacity at constant pressure” value (17.18 K) was 0.2844 ± 0.02 J/K/mol, the “molar heat capacity at constant pressure” value (19.06 K) was 0.3981 ± 0.028 J/K/mol and the “molar heat capacity at constant pressure” value (21.16 K) was 0.5588 ± 0.023 J/K/mol. The “molar heat capacity at constant pressure” value (23.49 K) was 0.7857 ± 0.032 J/K/mol, the “molar heat capacity at constant pressure” value (26.06 K) was 1.094 ± 0.044 J/K/mol and the “molar heat capacity at constant pressure” value (28.95 K) was 1.514 ± 0.062 J/K/mol. For the same compound, the “molar heat capacity at constant pressure” value (32.07 K) was 2.062 ± 0.084 J/K/mol, the “molar heat capacity at constant pressure” value (35.61 K) was 2.768 ± 0.11 J/K/mol and the “molar heat capacity at constant pressure” value (39.52 K) was 3.635 ± 0.15 J/K/mol. The “molar heat capacity at constant pressure” value (43.85 K) was 4.662 ± 0.19 J/K/mol, the “molar heat capacity at constant pressure” value (48.66 K) was 5.846 ± 0.24 J/K/mol and the “molar heat capacity at constant pressure” value (54.01 K) was 7.178 ± 0.29 J/K/mol. The “molar heat capacity at constant pressure” value (59.94 K) was 8.631 ± 0.35 J/K/mol, the “molar heat capacity at constant pressure” value (66.51 K) was 10.16 ± 0.41 J/K/mol and the “molar heat capacity at constant pressure” value (73.83 K) was 11.68 ± 0.47 J/K/mol. For the same compound, the “molar heat capacity at constant pressure” value (81.93 K) was 13.27 ± 0.54 J/K/mol, the “molar heat capacity at constant pressure” value (90.94 K) was 14.71 ± 0.6 J/K/mol and the “molar heat capacity at constant pressure” value (100.89 K) was 16.04 ± 0.65 J/K/mol. For the same compound, the “molar heat capacity at constant pressure” value (111.02 K) was 17.3 ± 0.7 J/K/mol, the “molar heat capacity at constant pressure” value (121.12 K) was 18.35 ± 0.74 J/K/mol and the “molar heat capacity at constant pressure” value (131.2 K) was 19.24 ± 0.78 J/K/mol. The “molar heat capacity at constant pressure” value (141.26 K) was 19.93 ± 0.81 J/K/mol, the “molar heat capacity at constant pressure” value (151.41 K) was 20.52 ± 0.83 J/K/mol and the “molar heat capacity at constant pressure” value (161.51 K) was 21.05 ± 0.85 J/K/mol. For the same compound, the “molar heat capacity at constant pressure” value (171.6 K) was 21.5 ± 0.87 J/K/mol, the “molar heat capacity at constant pressure” value (181.69 K) was 21.94 ± 0.89 J/K/mol and the “molar heat capacity at constant pressure” value (191.78 K) was 22.25 ± 0.9 J/K/mol. The “molar heat capacity at constant pressure” value (201.87 K) was 22.55 ± 0.92 J/K/mol, the “molar heat capacity at constant pressure” value (212 K) was 22.82 ± 0.93 J/K/mol and the “molar heat capacity at constant pressure” value (222.11 K) was 23.11 ± 0.94 J/K/mol. The “molar heat capacity at constant pressure” value (232.19 K) was 23.37 ± 0.95 J/K/mol, the “molar heat capacity at constant pressure” value (242.21 K) was 23.57 ± 0.96 J/K/mol and the “molar heat capacity at constant pressure” value (252.34 K) was 23.79 ± 0.97 J/K/mol. For the same compound, the “molar heat capacity at constant pressure” value (262.41 K) was 23.94 ± 0.97 J/K/mol, the “molar heat capacity at constant pressure” value (272.42 K) was 24.1 ± 0.98 J/K/mol and the “molar heat capacity at constant pressure” value (282.6 K) was 24.3 ± 0.99 J/K/mol. For the same compound, the “molar heat capacity at constant pressure” value (292.63 K) was 24.41 ± 0.99 J/K/mol, the “molar heat capacity at constant pressure” value (297.94 K) was 24.49 ± 0.99 J/K/mol and the “molar heat capacity at constant pressure” value (302.69 K) was 24.51 ± 1 J/K/mol. The “molar heat capacity at constant pressure” value (302.72 K) was 24.54 ± 1 J/K/mol, the “molar heat capacity at constant pressure” value (307.82 K) was 24.55 ± 1 J/K/mol and the “molar heat capacity at constant pressure” value (312.89 K) was 24.59 ± 1 J/K/mol. The “molar heat capacity at constant pressure” value (317.83 K) was 24.7 ± 1 J/K/mol, the “molar heat capacity at constant pressure” value (322.91 K) was 24.68 ± 1 J/K/mol and the “molar heat capacity at constant pressure” value (328.03 K) was 24.79 ± 1 J/K/mol. For the same compound, the “molar heat capacity at constant pressure” value (333.05 K) was 24.87 ± 1 J/K/mol, the “molar heat capacity at constant pressure” value (338.06 K) was 24.81 ± 1 J/K/mol and the “molar heat capacity at constant pressure” value (343.13 K) was 24.9 ± 1 J/K/mol. For the same compound, the “molar heat capacity at constant pressure” value (348.29 K) was 25.01 ± 1 J/K/mol, the “molar heat capacity at constant pressure” value (353.34 K) was 25.13 ± 1 J/K/mol and the “molar heat capacity at constant pressure” value (358.42 K) was 25.09 ± 1 J/K/mol. The “molar heat capacity at constant pressure” value (363.5 K) was 25.13 ± 1 J/K/mol, the “molar heat capacity at constant pressure” value (368.53 K) was 25.23 ± 1 J/K/mol and the “molar heat capacity at constant pressure” value (373.56 K) was 25.3 ± 1 J/K/mol. For the same compound, the “molar heat capacity at constant pressure” value (378.59 K) was 25.4 ± 1 J/K/mol, the “molar heat capacity at constant pressure” value (383.61 K) was 25.45 ± 1 J/K/mol and the “molar heat capacity at constant pressure” value (388.61 K) was 25.48 ± 1 J/K/mol. The “molar heat capacity at constant pressure” value (393.64 K) was 25.58 ± 1 J/K/mol and the “molar heat capacity at constant pressure” value (398.65 K) was 25.68 ± 1 J/K/mol.
